Experimental data: BindingDB's records for doi:10.1021/jm991119p (The Institute of Cancer Research, 2000)

Target: reduced folate carrier 1 (Mus musculus)
Assay: Affinity towards RFC (Reduced folate carrier) measured by the inhibition of [3H]MTX uptake

## C#CCN(Cc1cc2c(=O)[nH]c(C)nc2cc1C)c1ccc(C(=O)N[C@@H](CCC(=O)N[C@H](CCC(=O)O)C(=O)O)C(=O)O)cc1
  Ki: 200 µM
